Test results from ChEMBL document CHEMBL1201862, “PubChem BioAssay data set” (2004).
Calls of active or inactive are those of the source.

Experiments:
Streptococcus = test: GAS bacterial viability reduction – luminescence, BacTiter-Glo, strain UMAA2166, counter-screen for streptokinase expression inhibitor project, dose response (AID 2477); type: functional, organism-based
Streptokinase A = molecular target: T1, Streptokinase A (Streptococcus pyogenes serotype M1, UniProt P10520); test: Absorbance Microorganism-Based Dose Response Follow up to Identify Inhibitors of Streptokinase Expression. [Related pubchem assays: 1677 (Project Summary), 1915, 1914, 1902 (Retest at Dose), 1900 (Counter Screen), 1662 (Primary HTS)]; type: functional, Streptococcus pyogenes M1 GAS
T1 sequence (P10520 whole entry): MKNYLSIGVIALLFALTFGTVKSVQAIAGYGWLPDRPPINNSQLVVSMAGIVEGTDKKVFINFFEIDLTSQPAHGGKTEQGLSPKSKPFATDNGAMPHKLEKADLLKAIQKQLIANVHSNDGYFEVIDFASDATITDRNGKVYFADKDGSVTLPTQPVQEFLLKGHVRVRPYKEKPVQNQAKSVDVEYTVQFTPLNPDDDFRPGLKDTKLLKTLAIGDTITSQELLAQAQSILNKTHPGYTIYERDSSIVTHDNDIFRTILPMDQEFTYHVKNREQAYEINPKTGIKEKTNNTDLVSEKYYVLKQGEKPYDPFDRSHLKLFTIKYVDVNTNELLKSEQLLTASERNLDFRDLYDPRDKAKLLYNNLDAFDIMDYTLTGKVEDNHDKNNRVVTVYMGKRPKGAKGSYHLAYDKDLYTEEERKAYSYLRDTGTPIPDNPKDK

[1] = molecular target: 5-hydroxytryptamine receptor 1E (Homo sapiens, UniProt P28566); test: Counterscreen assay for S1P3 antagonists: Dose response cell-based high throughput screening assay to identify antagonists of the 5-Hydroxytryptamine Receptor Subtype 1E (5HT1E). [Related pubchem assays: 1429, 485 ]; type: functional
[2] = molecular target: Sphingosine 1-phosphate receptor 3 (Homo sapiens, UniProt Q99500); test: Dose response cell-based high throughput screening assay for antagonists of the Sphingosine 1-Phosphate Receptor 3 (S1P3). [Related pubchem assays: 1429, 485 ]; type: functional
H4 = test: Luminescence Cell-Based Dose Response HTS to Identify Activators of 5'UTR Stem-Loop Driven Prion Protein mRNA Translation in H4 Neuroglioblastoma Cells. [Related pubchem assays: 1829 (Project Summary), 1814 (Primary HTS)]; type: functional; settings: Homo sapiens
[3] = Luminescence Cell-Based Dose Response HTS to Identify Activators of Luciferase Translation or Activity in H4 […] Cells. [Related pubchem assays: 1829 (Project Summary), 1814 (Primary HTS)]; type: functional
[4] = molecular target: T2, Mannose-6-phosphate isomerase (Homo sapiens, UniProt P34949); test: MPI inhibition at elevated mannose 6-phosphate – biochemical, fluorescence intensity, high mannose 6-phosphate, primary screen (AID 1220)
T2 sequence (P34949 whole entry): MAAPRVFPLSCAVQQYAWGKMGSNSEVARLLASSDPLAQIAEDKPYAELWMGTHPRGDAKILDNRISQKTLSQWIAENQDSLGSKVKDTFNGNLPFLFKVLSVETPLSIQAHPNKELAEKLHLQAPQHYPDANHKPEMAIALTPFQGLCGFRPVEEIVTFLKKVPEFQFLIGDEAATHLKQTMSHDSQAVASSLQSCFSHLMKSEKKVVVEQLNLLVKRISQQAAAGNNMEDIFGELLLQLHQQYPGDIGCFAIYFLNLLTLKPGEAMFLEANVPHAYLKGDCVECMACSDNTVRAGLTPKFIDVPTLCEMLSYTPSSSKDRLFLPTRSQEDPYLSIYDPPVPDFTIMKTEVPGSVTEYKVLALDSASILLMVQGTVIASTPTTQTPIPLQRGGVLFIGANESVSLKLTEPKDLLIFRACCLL

[5] = Luminescence Cell-Based Dose Confirmation HTS to Identify Activators of 5'UTR Stem-Loop Driven Alpha-Synuclein mRNA Translation in H4 Neuroglioblastoma Cells. [Related pubchem assays: 1829 (Project Summary), 1814 (Primary HTS)]; type: functional
[6] = molecular target: T2, Mannose-6-phosphate isomerase; test: MPI enzyme activity inhibition – biochemical, fluorescence intensity, coupled assay, primary screen (AID 1209)

5-hydroxytryptamine receptor 1E, sequence (P28566 whole entry): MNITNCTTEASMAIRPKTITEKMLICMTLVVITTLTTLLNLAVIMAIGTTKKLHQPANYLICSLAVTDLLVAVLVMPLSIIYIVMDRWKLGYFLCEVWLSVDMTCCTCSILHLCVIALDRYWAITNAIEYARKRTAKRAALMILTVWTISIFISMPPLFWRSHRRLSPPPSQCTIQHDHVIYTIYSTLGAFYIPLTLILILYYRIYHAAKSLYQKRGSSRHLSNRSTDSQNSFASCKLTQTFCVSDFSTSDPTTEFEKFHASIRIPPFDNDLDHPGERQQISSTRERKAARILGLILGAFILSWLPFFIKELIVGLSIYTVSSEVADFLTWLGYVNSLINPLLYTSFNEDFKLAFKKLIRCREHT
Sphingosine 1-phosphate receptor 3, sequence (Q99500 whole entry): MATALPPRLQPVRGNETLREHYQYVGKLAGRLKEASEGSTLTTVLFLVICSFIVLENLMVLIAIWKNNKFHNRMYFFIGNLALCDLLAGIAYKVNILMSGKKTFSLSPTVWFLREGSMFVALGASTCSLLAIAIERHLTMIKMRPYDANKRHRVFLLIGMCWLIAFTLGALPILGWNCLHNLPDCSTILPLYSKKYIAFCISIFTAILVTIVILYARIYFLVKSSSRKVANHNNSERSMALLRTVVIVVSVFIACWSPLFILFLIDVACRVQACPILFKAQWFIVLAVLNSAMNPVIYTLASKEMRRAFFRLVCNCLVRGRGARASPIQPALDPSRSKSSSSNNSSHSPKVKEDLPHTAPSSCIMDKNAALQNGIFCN

COc1ccc(S(=O)(=O)c2ccc(NC(=O)c3ccccc3Cl)cc2C#N)cc1
EC50 (Streptococcus): 40.5 µM (active) | EC50 (Streptokinase A): 5.44 µM (active)

Cc1ccc(NC(=O)C(OC(=O)c2ccc(F)cc2)c2ccccc2)cc1Cl (centres undefined)
IC50 [1]: 15.6 µM (not active) | IC50 [2]: 6.4 µM (active)

c1ccc(-c2cc(N3CCCCCC3)n[nH]2)cc1
EC50 (H4): 9.81 µM (active) | EC50 [3]: 30.9 µM (active) | IC50 [4]: > 50 µM (not active) | EC50 [5]: 5.19 µM (active) | IC50 [6]: > 50 µM (not active)
